Results: patent US20170121315A1, “HETEROBICYCLICALLY SUBSTITUTED 4-OXOBUTANE ACID DERIVATIVES AND USE THEREOF” (priority 2014, published 2017)

Key:
Format in all cases: biochemical
[1] = target: T1, MMP-10 (Homo sapiens, UniProt P09238); assay: In vitro MMP-10 inhibition test; conditions: human MMP-10
T1 construct: purchased R&D Systems 910-MP
Description: (§1) The MMP-mediated amidolytic cleavage of a suitable peptide substrate leads to an increase in fluorescent light here too. The signal intensity of the fluorescent light is directly proportional to the enzyme activity. The active concentration of a test compound at which half the enzyme is inhibited (50% signal intensity of the fluorescent light) is reported as the IC50 value.
(§2) Recombinant MMP-10 (R&D Systems, 910-MP) is chemically activated in accordance with the manufacturer's instructions using APMA. 1 μl of the test compound to be analysed (as a solution in DMSO, suitable concentrations e.g. 1 nM to 30 μM) is pipetted into 24 μl of activated enzyme (final concentration e.g. 2 nM) in reaction buffer (50 mM Tris/HCl pH 7.5, 10 mM CaCl2, 150 mM NaCl, 0.05% Brij®-35) in a white 384-hole microtiter plate (MTP). The enzymatic reaction is started by adding the intramolecularly quenched Mca-Arg-Pro-Lys-Pro-Val-Glu-Nval-Trp-Arg-Lys(Dnp)-NH2 substrate (final concentration e.g. 10 μM; R&D Systems, ES-002), so as to result in a total test volume of 50 μl. The course of the MMP-10 reaction is measured by measuring the fluorescence intensity (excitation 320 nm, emission 410 nm) over a suitable period of time (e.g. over 120 min at a temperature of 32° C.).

[2] = target: T2, human macrophage elastase (HME/hMMP-12) (Homo sapiens, UniProt P39900); assay: In vitro HME inhibition test (standard or high-sensitivity); conditions: in some cases mean values, rounded to two significant figures
T2 construct: purchased R&D Systems 917-MP
Outline: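 Autoactivated HME (0.5 nM; high-sensitivity format 0.05 nM, ~16 h) with 5 μM quenched Mca-PLGLEEA-Dap(Dnp)-NH2 substrate in HEPES pH 7.4, NaCl, CaCl2, ZnCl2, EDTA, Brij buffer, 2 h at 37° C. Fluorescence at ex 323/em 393 nm; IC50 from signal versus concentration.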

[3] = target: T3, MMP-3 (Homo sapiens, UniProt P08254); assay: In vitro MMP-3 inhibition test; conditions: human MMP-3
T3 construct: purchased R&D Systems 513-MP
Description: as §1
as §2, with “MMP-3” for “MMP-10”, “513-MP)” for “910-MP)”

[4] = target: T4, MMP-8 (Homo sapiens, UniProt P22894); assay: In vitro MMP-8 inhibition test; conditions: human MMP-8
T4 construct: purchased R&D Systems 908-MP
Description: as §1
as §2, with “Recombinant MMP-8” for “Recombinant MMP-10”, “Systems, 908-MP)” for “Systems, 910-MP)”, “e.g. 0.5” for “e.g. 2”, “quenched Mca-Pro-Leu-Gly-Leu-Dpa(Dnp)-Ala-Arg-NH2” for “quenched Mca-Arg-Pro-Lys-Pro-Val-Glu-Nval-Trp-Arg-Lys(Dnp)-NH2”, “Systems, ES-001),” for “Systems, ES-002),”, “the MMP-8” for “the MMP-10”

[5] = target: T5, MMP-16 (Homo sapiens, UniProt P51512); assay: In vitro MMP-16 inhibition test; conditions: human MMP-16
T5 construct: purchased R&D Systems 1785-MP
Description: as §1
Recombinant MMP-16 (R&D Systems, 1785-MP) is enzymatically activated in accordance with the manufacturer's instructions using recombinant furin (R&D Systems, 1503-SE). 1 μl of the test compound to be analysed (as a solution in DMSO, suitable concentrations e.g. 1 nM to 30 μM) is pipetted into 24 μl of activated enzyme (final concentration e.g. 1 nM) in reaction buffer (50 mM Tris/HCl pH 7.5, 10 mM CaCl2, 150 mM NaCl, 0.05% Brij®-35) in a white 384-hole microtiter plate (MTP). The enzymatic reaction is started by adding the intramolecularly quenched Mca-Lys-Pro-Leu-Gly-Leu-Dpa(Dnp)-Ala-Arg-NH2 substrate (final concentration e.g. 5 μM; R&D Systems, ES-010), so as to result in a total test volume of 50 μl. The course of the MMP-16 reaction is measured by measuring the fluorescence intensity (excitation 320 nm, emission 410 nm) over a suitable period of time (e.g. over 120 min at a temperature of 32° C.).

T3 sequence (P08254 100-477): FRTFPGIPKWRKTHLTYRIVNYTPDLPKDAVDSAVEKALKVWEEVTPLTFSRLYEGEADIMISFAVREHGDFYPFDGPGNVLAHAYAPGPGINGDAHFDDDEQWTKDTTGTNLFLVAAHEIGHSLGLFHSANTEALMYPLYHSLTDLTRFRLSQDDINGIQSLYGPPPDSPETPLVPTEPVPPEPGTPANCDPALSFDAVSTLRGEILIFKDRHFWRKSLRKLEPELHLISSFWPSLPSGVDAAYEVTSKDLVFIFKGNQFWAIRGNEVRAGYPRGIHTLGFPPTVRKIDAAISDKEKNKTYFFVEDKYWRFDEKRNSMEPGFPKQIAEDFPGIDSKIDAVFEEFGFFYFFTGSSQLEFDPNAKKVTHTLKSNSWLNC
T2 sequence (P39900 106-470): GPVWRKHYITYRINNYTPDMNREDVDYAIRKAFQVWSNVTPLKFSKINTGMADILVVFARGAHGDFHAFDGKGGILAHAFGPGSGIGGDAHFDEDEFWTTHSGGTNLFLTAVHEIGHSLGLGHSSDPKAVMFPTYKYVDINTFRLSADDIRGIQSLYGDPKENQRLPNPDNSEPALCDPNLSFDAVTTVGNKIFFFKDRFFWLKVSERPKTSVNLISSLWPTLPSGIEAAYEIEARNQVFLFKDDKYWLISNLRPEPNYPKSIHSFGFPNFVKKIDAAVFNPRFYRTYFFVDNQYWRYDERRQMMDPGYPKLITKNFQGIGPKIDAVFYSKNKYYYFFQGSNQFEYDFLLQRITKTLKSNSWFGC
T1 sequence (P09238 99-476): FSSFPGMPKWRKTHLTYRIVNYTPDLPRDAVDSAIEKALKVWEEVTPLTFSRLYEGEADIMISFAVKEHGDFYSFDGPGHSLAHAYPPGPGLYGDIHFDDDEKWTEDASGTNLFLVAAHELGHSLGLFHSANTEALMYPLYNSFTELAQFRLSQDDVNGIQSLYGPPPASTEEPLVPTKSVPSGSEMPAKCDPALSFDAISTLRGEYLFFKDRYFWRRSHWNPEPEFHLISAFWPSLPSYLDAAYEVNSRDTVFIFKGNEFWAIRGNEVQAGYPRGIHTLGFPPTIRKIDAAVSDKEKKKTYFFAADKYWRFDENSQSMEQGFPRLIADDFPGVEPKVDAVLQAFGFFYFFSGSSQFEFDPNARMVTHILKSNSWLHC
T5 sequence (P51512 120-564 limits assumed): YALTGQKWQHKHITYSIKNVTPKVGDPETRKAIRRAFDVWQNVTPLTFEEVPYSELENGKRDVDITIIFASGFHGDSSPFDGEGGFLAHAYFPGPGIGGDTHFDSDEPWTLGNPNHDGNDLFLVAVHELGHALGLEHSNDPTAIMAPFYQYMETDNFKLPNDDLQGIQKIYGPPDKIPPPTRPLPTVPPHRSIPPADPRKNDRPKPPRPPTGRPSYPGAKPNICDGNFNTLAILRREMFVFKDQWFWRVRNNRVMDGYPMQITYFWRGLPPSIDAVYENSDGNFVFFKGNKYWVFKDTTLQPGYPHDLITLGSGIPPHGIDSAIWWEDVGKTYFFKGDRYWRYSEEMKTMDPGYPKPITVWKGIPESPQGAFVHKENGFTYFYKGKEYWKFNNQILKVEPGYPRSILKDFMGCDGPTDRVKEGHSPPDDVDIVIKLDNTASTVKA
T4 sequence (P22894 101-467): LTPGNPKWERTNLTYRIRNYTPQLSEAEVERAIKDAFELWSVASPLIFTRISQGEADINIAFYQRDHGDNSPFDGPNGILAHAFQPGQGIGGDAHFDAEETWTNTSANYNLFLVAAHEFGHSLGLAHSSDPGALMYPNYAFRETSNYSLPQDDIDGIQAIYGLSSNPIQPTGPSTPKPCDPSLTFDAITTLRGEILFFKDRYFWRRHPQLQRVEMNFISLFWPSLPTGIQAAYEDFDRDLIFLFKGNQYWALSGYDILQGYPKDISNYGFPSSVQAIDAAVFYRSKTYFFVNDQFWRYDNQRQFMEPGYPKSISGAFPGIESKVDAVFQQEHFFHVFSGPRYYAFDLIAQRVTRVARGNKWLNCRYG

| SMILES | IC50 [1] | IC50 [2] | IC50 [3] | IC50 [4] | IC50 [5] |
| --- | --- | --- | --- | --- | --- |
| CCCCCCOc1ccc2c(C(=O)CC(CCn3nnc4ccccc4c3=O)C(=O)O)coc2c1 (single isomer, unassigned; (+)) [Example 100, (+)-4-[6-(Hexyloxy)-1-benzofur-3-yl]-4-oxo-2-[2-(4-oxo-1,2,3-benzotriazin-3(4H)-yl)ethyl]butanoic acid] | 11 µM | 0.00018 µM | > 40 µM | 2.8 µM | > 40 µM |
| CCCCCOc1ccc2c(C(=O)CC(CCn3nnc4ccccc4c3=O)C(=O)O)coc2c1 (racemic) [Example 89, (+/−)-4-Oxo-2-[2-(4-oxo-1,2,3-benzotriazin-3(4H)-yl)ethyl]-4-[6-(pentyloxy)-1-benzofur-3-yl]butanoic acid] | 22 µM | 0.00035 µM | > 40 µM | 6.7 µM | > 40 µM |
| O=C(CC(CCn1nnc2ccccc2c1=O)C(=O)O)c1cc2cc(OCC3CCOCC3)ccc2o1 (racemic) [Example 5, (+/−)-4-Oxo-2-[2-(4-oxo-1,2,3-benzotriazin-3(4H)-yl)ethyl]-4-[5-(tetrahydro-2H-pyran-4-ylmethoxy)-1-benzofur-2-yl]butanoic acid] | 34 µM | 0.0021 µM | > 40 µM | 7.7 µM | > 40 µM |
| O=C(CC(CCn1nnc2ccccc2c1=O)C(=O)O)c1cc2cc(OCCC3CCCC3)ccc2o1 (racemic) [Example 7, (+/−)-4-[5-(2-Cyclopentylethoxy)-1-benzofur-2-yl]-4-oxo-2-[2-(4-oxo-1,2,3-benzotriazin-3(4H)-yl)ethyl]butanoic acid] | 9.3 µM | 0.0028 µM | 27 µM | 22 µM | > 40 µM |
| O=C(CC(CCn1nnc2ccccc2c1=O)C(=O)O)c1cc2ccc(OCCc3ccccc3)cc2s1 (racemic) [Example 114, (+/−)-4-Oxo-2-[2-(4-oxo-1,2,3-benzotriazin-3(4H)-yl)ethyl]-4-[6-(2-phenylethoxy)-1-benzothiophen-2-yl]butanoic acid] | 3.4 µM | 0.0003 µM | 3.2 µM | 3.2 µM | 28 µM |
| O=C(CC(CCn1nnc2ccccc2c1=O)C(=O)O)c1cc2cc(OCCc3ccccc3)ccc2o1 (single isomer, unassigned; (+)) [Example 21, (+)-4-Oxo-2-[2-(4-oxo-1,2,3-benzotriazin-3(4H)-yl)ethyl]-4-[5-(2-phenylethoxy)-1-benzofur-2-yl]butanoic acid] | 13 µM | 0.0022 µM | 22 µM | 14 µM | > 40 µM |
| O=C(CC(CCn1nnc2ccccc2c1=O)C(=O)O)c1noc2cc(OCc3cccnc3)ccc12 (racemic) [Example 148, (+/−)-4-Oxo-2-[2-(4-oxo-1,2,3-benzotriazin-3(4H)-yl)ethyl]-4-[6-(pyridin-3-ylmethoxy)-1,2-benzoxazol-3-yl]butanoic acid] | 0.2 µM | 0.0018 µM | 9.1 µM | 0.27 µM | > 40 µM |
| CCCCCCCOc1ccc2c(C(=O)CC(CCn3nnc4ccccc4c3=O)C(=O)O)coc2c1 (racemic) [Example 101, (+/−)-4-[6-(Heptyloxy)-1-benzofur-3-yl]-4-oxo-2-[2-(4-oxo-1,2,3-benzotriazin-3(4H)-yl)ethyl]butanoic acid] | > 40 µM | 0.00053 µM | > 40 µM | 12 µM | > 40 µM |
| O=C(CC(CCn1nnc2ccc(C(F)(F)F)cc2c1=O)C(=O)O)c1noc2cc(OCc3ccccc3)ccc12 (racemic) [Example 154, (+/−)-4-[6-(Benzyloxy)-1,2-benzoxazol-3-yl]-4-oxo-2-{2-[4-oxo-6-(trifluoromethyl)-1,2,3-benzotriazin-3(4H)-yl]ethyl}butanoic acid] | 3.3 µM | 0.00075 µM | 10 µM | 0.97 µM | 13 µM |
| O=C(CC(CCn1nnc2ccccc2c1=O)C(=O)O)c1noc2cc(OCC3CC3)ccc12 (racemic) [Example 150, (+/−)-4-[6-(Cyclopropylmethoxy)-1,2-benzoxazol-3-yl]-4-oxo-2-[2-(4-oxo-1,2,3-benzotriazin-3(4H)-yl)ethyl]butanoic acid] | > 40 µM | 0.0038 µM | 33 µM | 0.4 µM | 11 µM |
| O=C(CC(CCn1nnc2ccccc2c1=O)C(=O)O)c1coc2cc(OCCC3CCCC3)ccc12 (racemic) [Example 75, (+/−)-4-[6-(2-Cyclopentylethoxy)-1-benzofur-3-yl]-4-oxo-2-[2-(4-oxo-1,2,3-benzotriazin-3(4H)-yl)ethyl]butanoic acid] | 7.7 µM | 0.00022 µM | > 40 µM | 3.3 µM | > 40 µM |
| O=C(CC(CCn1nnc2ccccc2c1=O)C(=O)O)c1noc2cc(OCCc3ccccc3)ccc12 (racemic) [Example 144, (+/−)-4-Oxo-2-[2-(4-oxo-1,2,3-benzotriazin-3(4H)-yl)ethyl]-4-[6-(2-phenylethoxy)-1,2-benzoxazol-3-yl]butanoic acid] | 29 µM | 0.0014 µM | 18 µM | 2.5 µM | 15 µM |
| CCCCCCCOc1ccc2oc(C(=O)CC(CCn3nnc4ccccc4c3=O)C(=O)O)cc2c1 (racemic) [Example 31, (+/−)-4-[5-(Heptyloxy)-1-benzofur-2-yl]-4-oxo-2-[2-(4-oxo-1,2,3-benzotriazin-3(4H)-yl)ethyl]butanoic acid] | > 40 µM | 0.0048 µM | > 40 µM | 35 µM | > 40 µM |
| O=C(CC(CCn1nnc2ccccc2c1=O)C(=O)O)c1cc2cc(OCCCc3ccccc3)ccc2o1 (racemic) [Example 37, (+/−)-4-Oxo-2-[2-(4-oxo-1,2,3-benzotriazin-3(4H)-yl)ethyl]-4-[5-(3-phenylpropoxy)-1-benzofur-2-yl]butanoic acid] | 29 µM | 0.0046 µM | 39 µM | 12 µM | > 40 µM |
